Results published in patent US20260125382A1, “COMPOUNDS FOR INHIBITING OR DEGRADING CDK2 AND/OR CDK9 AND MEDICINAL USE THEREOF” (KOREA RESEARCH INSTITUTE OF CHEMICAL TECHNOLOGY, priority 2022, published 2026).

Assays:
[1] = biological target: T1, CDK9 (Homo sapiens, UniProt P50750); experiment: CDK protein degradation activity (Western blotting), CDK9; assay type: cell-based; conditions: MDA-MB-231 cells, 16 hours, Western blot
T1 construct: endogenous in cells; host or cells: MDA-MB-231
Method: (§1) In order to evaluate the CDK protein degradation activity of the compounds according to the present invention, the following experiment was conducted.
(§2) MDA-MB-231 cells were seeded at 5×10^5 cells per well in a 6-well plate. The next day, the compounds were treated in each well to achieve final concentrations of 100 nM, 1 μM, and 10 μM. For the control group, an equal amount of DMSO was treated in the well as the compound. After 16 hours of treatment, cells were collected, and cell lysates were prepared using Triton X-100 lysis buffer (50 mM HEPES, pH 7.5, 40 mM NaCl, 1% Triton X-100, 1 mM EDTA, 1 mM EGTA, 10 mM pyrophosphate, 10 mM β-glycerophosphate, 50 mM NaF, 1 mM NaVO4, protease inhibitor). Cell lysates were quantified and separated by size using sodium dodecyl sulfate-polyacrylamide gel electrophoresis (SDS-PAGE). Western blotting was then performed using antibodies that recognize CDK2, CDK9, and tubulin, respectively. The results obtained by Western blotting were quantitatively analyzed using the ImageJ program, and representative images according to the experimental results are shown in FIG. 1.

[2] = biological target: T2, CDK2 (Homo sapiens, UniProt P24941); experiment: CDK protein degradation activity (Western blotting), CDK2; assay type: cell-based; conditions: MDA-MB-231 cells, 16 hours, Western blot
T2 construct: endogenous in cells; host or cells: MDA-MB-231
Method: as §1, §2

T1 sequence (P50750 whole entry): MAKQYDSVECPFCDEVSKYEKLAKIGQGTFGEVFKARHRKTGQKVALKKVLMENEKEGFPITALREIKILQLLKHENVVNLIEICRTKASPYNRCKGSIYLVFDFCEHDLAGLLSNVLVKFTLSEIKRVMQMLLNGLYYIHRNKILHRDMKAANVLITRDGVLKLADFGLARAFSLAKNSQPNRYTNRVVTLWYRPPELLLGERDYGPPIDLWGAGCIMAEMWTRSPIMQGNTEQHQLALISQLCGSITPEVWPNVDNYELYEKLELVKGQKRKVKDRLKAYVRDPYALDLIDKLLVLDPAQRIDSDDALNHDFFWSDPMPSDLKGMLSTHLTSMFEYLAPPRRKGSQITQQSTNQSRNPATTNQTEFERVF

Row | SMILES | Enzyme degradation CDK9 (% remaining) @ 0.1 μM [1] | Enzyme degradation CDK9 (% remaining) @ 1 μM [1] | Enzyme degradation CDK9 (% remaining) @ 10 μM [1] | Enzyme degradation CDK2 (% remaining) @ 0.1 μM [2] | Enzyme degradation CDK2 (% remaining) @ 1 μM [2] | Enzyme degradation CDK2 (% remaining) @ 10 μM [2]
1 | Cc1cccc(C(=O)N[C@H]2C[C@@H](n3cnc4c(NC5CCN(CCC6CCN(C(=O)COc7ccc8c(c7)C(=O)N(C7CCC(=O)NC7=O)C8=O)CC6)CC5)ncnc43)C2)n1 (stereo partly drawn) [Compound 31, N-((1s,3s)-3-(6-((1-(2-(1-(2-((2-(2,6-dioxopiperidin-3-yl)-1,3-dioxoisoindolin-5-yl)oxy)acetyl)piperidin-4-yl)ethyl)piperidin-4-yl)amino)-9H-purin-9-yl)cyclobutyl)-6-methylpicolinamide] | 10% | 0% | 0% | 70% | 40% | 30%
2 | O=C1CC[C@H](N2C(=O)c3ccc(N4CC(C(=O)N5CCN(C6CCN(c7ccc(Nc8ncnc9c8ncn9C8CC(NC(=O)Cc9ccccc9)C8)cc7)CC6)CC5)C4)cc3C2=O)C(=O)N1 (stereo partly drawn) [Compound 364, N-((1s,3s)-3-(6-((4-(4-(4-(1-(2-(2,6-dioxopiperidin-3-yl)-1,3-dioxoisoindolin-5-yl)azetidin-3-carbonyl)piperazin-1-yl)piperidin-1-yl)phenyl)amino)-9H-purin-9-yl)cyclobutyl)-2-phenylacetamide] | 70% | 10% | 10% | 100% | 50% | 50%
3 | O=C1CC[C@H](N2C(=O)c3ccc(N4CCC(CN5CCC(CCNc6ncnc7c6ncn7C6CC(NC(=O)Cc7ccccc7)C6)CC5)CC4)cc3C2=O)C(=O)N1 (stereo partly drawn) [Compound 423, N-((1s,3s)-3-(6-((2-(1-((1-(2-(2,6-dioxopiperidin-3-yl)-1,3-dioxoisoindolin-5-yl)piperidin-4-yl)methyl)piperidin-4-yl)ethyl)amino)-9H-purin-9-yl)cyclobutyl)-2-phenylacetamide] | 20% | 10% | 10% | 30% | 20% | 20%
4 | Cc1cccc(C(=O)NC2CC(n3cnc4c(NCCCN5CCN(CC6CCN(C(=O)COc7ccc8c(c7)C(=O)N([C@@H]7CCC(=O)NC7=O)C8=O)CC6)CC5)ncnc43)C2)n1 (stereo partly drawn) [Compound 144, N-((1r,3r)-3-(6-((3-(4-((1-(2-((2-(2,6-dioxopiperidin-3-yl)-1,3-dioxoisoindolin-5-yl)oxy)acetyl)piperidin-4-yl)methyl)piperazin-1-yl)propyl)amino)-9H-purin-9-yl)cyclobutyl)-6-methylpicolinamide] | 80% | 10% | 0% | 100% | 70% | 70%
5 | Cc1cccc(C(=O)N[C@H]2C[C@@H](n3cnc4c(Nc5ccc(N6CCN(C(=O)CNc7cccc8c7C(=O)N([C@H]7CCC(=O)NC7=O)C8=O)CC6)cc5)ncnc43)C2)n1 [Compound 87, N-((1s,3s)-3-(6-((4-(4-((2-(2,6-dioxopiperidin-3-yl)-1,3-dioxoisoindolin-4-yl)glycyl)piperazin-1-yl)phenyl)amino)-9H-purin-9-yl)cyclobutyl)-6-methylpicolinamide] | 50% | 50% | 40% | 90% | 70% | 50%
6 | Cc1cccc(C(=O)N[C@H]2C[C@@H](n3cnc4c(Nc5ccc(N6CCN(C7CC8(CCN(c9ccc%10nnn([C@H]%11CCC(=O)NC%11=O)c(=O)c%10c9)CC8)C7)CC6)cc5)ncnc43)C2)n1 [Compound 386, N-((1s,3s)-3-(6-((4-(4-(7-(3-(2,6-dioxopiperidin-3-yl)-4-oxo-3,4-dihydrobenzo[d][1,2,3]triazin-6-yl)-7-azaspiro[3.5]nonan-2-yl)piperazin-1-yl)phenyl)amino)-9H-purin-9-yl)cyclobutyl)-6-methylpicolinamide] | 0/0/0% | 0/0/0% | 0/0/0% | 20% | 10% | 10%
7 | O=C1CC[C@H](N2C(=O)C=C(N3CCC(C(=O)N4CCC(CC(=O)N5CCN(c6ccc(Nc7ncnc8c7ncn8[C@H]7C[C@@H](NC(=O)Cc8ccccc8)C7)cc6)CC5)CC4)CC3)C2=O)C(=O)N1 [Compound 197, N-((1s,3s)-3-(6-((4-(4-(2-(1-(1-(1-(2,6-dioxopiperidin-3-yl)-2,5-dioxo-2,5-dihydro-1H-pyrrol-3-yl)piperidin-4-carbonyl)piperidin-4-yl)acetyl)piperazin-1-yl)phenyl)amino)-9H-purin-9-yl)cyclobutyl)-2-phenylacetamide] | 10% | 10% | 0% | 30/30/30% | 30/30/30% | 30/30/30%
8 | O=C1CC[C@H](N2C(=O)c3ccc(N4CC(C(=O)N5CCC6(CC5)CC(N5CCN(c7ccc(Nc8ncnc9c8ncn9C8CC(NC(=O)c9c(Cl)cccc9Cl)C8)cc7)CC5)C6)C4)cc3C2=O)C(=O)N1 (stereo partly drawn) [Compound 383, 2,6-dichloro-N-((1s,3s)-3-(6-((4-(4-(7-(1-(2-(2,6-dioxopiperidin-3-yl)-1,3-dioxoisoindolin-5-yl)azetidin-3-carbonyl)-7-azaspiro[3.5]nonan-2-yl)piperazin-1-yl)phenyl)amino)-9H-purin-9-yl)cyclobutyl)benzamide] | 0/0/0% | 0/0/0% | 0/0/0% | 40/40/40% | 40/40/40% | 40/40/40%
9 | O=C1CC[C@H](N2C(=O)c3cc(F)c(N4CCC(C(=O)N5CCN(CC6CCN(c7ccc(Nc8ncnc9c8ncn9[C@H]8C[C@@H](NC(=O)c9c(Cl)cccc9Cl)C8)cc7)CC6)CC5)CC4)cc3C2=O)C(=O)N1 [Compound 475, 2,6-dichloro-N-((1s,3s)-3-(6-((4-(4-((4-(1-(2-(2,6-dioxopiperidin-3-yl)-6-fluoro-1,3-dioxoisoindolin-5-yl)piperidin-4-carbonyl)piperazin-1-yl)methyl)piperidin-1-yl)phenyl)amino)-9H-purin-9-yl)cyclobutyl)benzamide] | 0/0/0% | 0/0/0% | 0/0/0% | 20/20/20% | 20/20/20% | 20/20/20%
10 | O=C1CCN(c2coc3cc(C(=O)NC[C@H]4CC[C@H](CN5CCN(c6ccc(Nc7ncnc8c7ncn8[C@H]7C[C@@H](NC(=O)Cc8ccccc8)C7)cc6)CC5)CC4)ccc23)C(=O)N1 [Compound 199, 3-(2,4-dioxotetrahydropyrimidin-1(2H)-yl)-N-(((1r,4r)-4-((4-(4-((9-((1s,3s)-3-(2-phenylacetamido)cyclobutyl)-9H-purin-6-yl)amino)phenyl)piperazin-1-yl)methyl)cyclohexyl)methyl)benzofuran-6-carboxamide] | 20% | 30% | 30% | 50% | 60% | 50%
11 | O=C1CC[C@H](N2C(=O)c3ccc(N4CCC5(CC4)CC(N4CCN(c6ccc(Nc7ncnc8c7ncn8C7CC(NC(=O)c8c(Cl)cccc8Cl)C7)cc6)CC4)C5)cc3C2=O)C(=O)N1 (stereo partly drawn) [Compound 315, 2,6-dichloro-N-((1s,3s)-3-(6-((4-(4-(7-(2-(2,6-dioxopiperidin-3-yl)-1,3-dioxoisoindolin-5-yl)-7-azaspiro[3.5]nonan-2-yl)piperazin-1-yl)phenyl)amino)-9H-purin-9-yl)cyclobutyl)benzamide] | 0/0/0% | 0/0/0% | 0/0/0% | 10% | 20% | 30%
12 | O=C1CC[C@H](N2C(=O)c3ccc(N4CC(N5CCC6(CC5)CC(N5CCN(c7ccc(Nc8ncnc9c8ncn9C8CC(NC(=O)Cc9ccccc9)C8)cc7)CC5)C6)C4)cc3C2=O)C(=O)N1 (stereo partly drawn) [Compound 271, N-((1s,3s)-3-(6-((4-(4-(7-(1-(2-(2,6-dioxopiperidin-3-yl)-1,3-dioxoisoindolin-5-yl)azetidin-3-yl)-7-azaspiro[3.5]nonan-2-yl)piperazin-1-yl)phenyl)amino)-9H-purin-9-yl)cyclobutyl)-2-phenylacetamide] | 20% | 10% | 10% | 30% | 40% | 40%
